Assay [1] concerns F. prausnitzii. To be noted: co-culture with Bifidobacterium longum subsp. infantis; cited from earlier work.
Assay [2] concerns F. prausnitzii. The settings on record: cited from earlier work.
Assay [3] deals with F. prausnitzii. To be noted: rats; cited from earlier work.
The subject of assay [4] is Faecalibacterium prausnitzii. Put plainly: in vitro incubation of 2′-FL with fecal inoculum of adult and elderly subjects, 16S rRNA microbiota composition. To be noted: 2′-FL 10 mg/ml, 10% (v/v) fecal inoculum, samples 0-24 h, adults 25-50 yrs and 70-79 yrs. The format is cell-based, human. The protocol:
A group of twelve randomly contacted adults—three men and three women aged 25-50 yrs and three men and three women aged 70-79 yrs—donated their fecal material for an in vitro study. Anoxically cryo-conserved fecal inoculum was defrosted and transferred to a 96% N2 and 4% H2 filled anaerobic chamber. Incubation of 2′-FL (10 mg/ml) was done with 10% (v/v) fecal inoculum in duplicate, while incubations without fecal inoculum and without carbohydrates served as controls using the standard ileal efflux medium. Samples were collected 0 h, 4 h, 10 h and 24 h after inoculation.
Three aliquots of 1 ml from each culture bottle were then distributed into 1.5 ml Eppendorf tubes. One of these aliquots was heated at 100° C. for 5 min to determine carbohydrates in the supernatant. Afterwards, all samples were centrifuged at 4° C. at 18600 relative centrifugal force (rcf) for 10 min. The supernatants from the other two tubes were pooled and stored at −20° C. for metabolite measurement, while the remaining pellets were stored at −80 C for microbiota composition analysis.
The microbiota composition was determined by sequencing of barcoded 16S ribosomal RNA (rRNA) gene amplicons using Illumina Hiseq2500 (2×150 bp). […]

Data on one substance can be found in patent US20230413887A1, “2'-FUCOSYLLACTOSE FOR USE IN STIMULATING F. PRAUSNITZII ABUNDANCE” (FrieslandCampina Nederland B.V., priority 2020, published 2023).

“Also recorded” adds a separate entry of the source.

For 2′-fucosyllactose [2′-FL], in assay [1], the “effect on F. prausnitzii abundance in co-culture” value is listed as “not able to increase”. Further, the “effect on F. prausnitzii abundance in monocultures” value in assay [2] is given as “does not affect”. Besides, the “F. prausnitzii abundance as a result of 2′-FL administration” value in assay [3] is given as “decrease”. Further, the “abundance of F. prausnitzii as compared to control medium without 2′-FL” value in assay [4] is “increase the abundance; also recorded: higher abundance”.
